Source: publication PMC7700040, “Phytochemical Analysis, Anti-inflammatory, and Antioxidant Activities of Dendropanax dentiger Roots” (BioMed Research International, 2020)
In brackets after ≈: the same amount, converted by molar mass.

What was measured:
[1] = DPPH radical scavenging activity; settings: mean ± SD (n = 3)
Method: Briefly, 150 μL of DPPH solution (dissolved 0.2 mM in methanol) was mixed with 50 μL of the sample at different concentrations. The mixture was stirred and incubated in the dark at 30°C for 30 min, and the absorbance was determined at 517 nm (Asample). The absorbance of a blank (Ablank) and negative control (Acontrol) composed of only the sample and DPPH solutions was also determined, respectively. The DPPH radical scavenging activity of the sample was calculated by the following equation: DPPHscavengingactivity = [1 − (Asample–Ablank)/Acontrol] × 100%. Vc was used as a positive control in this experiment.

[2] = ABTS radical scavenging activity; settings: mean ± SD (n = 3)
Method: The ABTS radical scavenging activity of the sample was carried out using the method reported by Sun et al. with minor modification. Briefly, 1.76 mL of K2S2O8 (140 mM) and 100 mL of ABTS solution (7 mM) were mixed and stored in the dark at 25°C for 12 h. […] The absorbance of a blank (Ablank) and negative control (Acontrol) composed of only the sample and diluted ABTS^+ radical solutions was also determined, respectively. The ABTS radical scavenging activity of the sample was calculated by the following equation: […] = [1 - (Asample-Ablank)/Acontrol] × 100%. Vc was used as a positive control in this experiment.

- IC50 DPPH assay [1]: 6.0 ± 0.2 µg/mL (≈ 34.1 µM)
- IC50 ABTS assay [2]: 1.2 ± 0.1 µg/mL (≈ 6.81 µM)
Compound: O=C1O[C@H]([C@@H](O)CO)C(O)=C1O [Vc, L-Ascorbic acid]
